Legend:
Type in all cases: cell-based
NaV1.3 = biological target: T1, NaV1.3 (Homo sapiens, UniProt Q9NY46); test: VIPR optical membrane potential assay with electrical stimulation, NaV1.3; details: Table 9, NaV 1.3 receptors
T1 construct: expressed in transfected cells; host or cells: HEK293
How it was run: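 HEK293 cells stably expressing NaV1.3, stained with CC2-DMPE (10 μM final) then DiSBAC2(3) with ABSC1, 30 min each at RT; compounds added with oxonol. Electrical stimulation for 3 s; 460/580 nm background-subtracted emission ratio Rf/Ri, normalised to tetracaine (positive) and untreated (negative) controls.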

CaV2.2 = biological target: T2, CaV2.2 (Homo sapiens, UniProt Q00975); test: VIPR optical membrane potential assay with electrical stimulation, CaV2.2; details: Table 9, CaV 2.2 receptors
T2 construct: expressed in transfected cells; host or cells: HEK293
How it was run: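 HEK293 cells stably expressing CaV2.2 stained with CC2-DMPE/DiSBAC2(3) voltage-sensitive dyes (10 μM final CC2-DMPE, 30 min, RT), then compound added and cells electrically stimulated for 3-5 s. Read-out: background-subtracted 460/580 nm emission ratio; response R=Rf/Ri (post- vs pre-stimulus ratio); antagonism seen as reduced response.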

NaV1.8 = NaV1.8 (Homo sapiens, UniProt Q9Y5Y9); test: VIPR optical membrane potential assay, NaV1.8 (other subtypes in an analogous mode); details: Table 9, NaV 1.8 receptors
NaV1.8, sequence (Q9Y5Y9 whole entry): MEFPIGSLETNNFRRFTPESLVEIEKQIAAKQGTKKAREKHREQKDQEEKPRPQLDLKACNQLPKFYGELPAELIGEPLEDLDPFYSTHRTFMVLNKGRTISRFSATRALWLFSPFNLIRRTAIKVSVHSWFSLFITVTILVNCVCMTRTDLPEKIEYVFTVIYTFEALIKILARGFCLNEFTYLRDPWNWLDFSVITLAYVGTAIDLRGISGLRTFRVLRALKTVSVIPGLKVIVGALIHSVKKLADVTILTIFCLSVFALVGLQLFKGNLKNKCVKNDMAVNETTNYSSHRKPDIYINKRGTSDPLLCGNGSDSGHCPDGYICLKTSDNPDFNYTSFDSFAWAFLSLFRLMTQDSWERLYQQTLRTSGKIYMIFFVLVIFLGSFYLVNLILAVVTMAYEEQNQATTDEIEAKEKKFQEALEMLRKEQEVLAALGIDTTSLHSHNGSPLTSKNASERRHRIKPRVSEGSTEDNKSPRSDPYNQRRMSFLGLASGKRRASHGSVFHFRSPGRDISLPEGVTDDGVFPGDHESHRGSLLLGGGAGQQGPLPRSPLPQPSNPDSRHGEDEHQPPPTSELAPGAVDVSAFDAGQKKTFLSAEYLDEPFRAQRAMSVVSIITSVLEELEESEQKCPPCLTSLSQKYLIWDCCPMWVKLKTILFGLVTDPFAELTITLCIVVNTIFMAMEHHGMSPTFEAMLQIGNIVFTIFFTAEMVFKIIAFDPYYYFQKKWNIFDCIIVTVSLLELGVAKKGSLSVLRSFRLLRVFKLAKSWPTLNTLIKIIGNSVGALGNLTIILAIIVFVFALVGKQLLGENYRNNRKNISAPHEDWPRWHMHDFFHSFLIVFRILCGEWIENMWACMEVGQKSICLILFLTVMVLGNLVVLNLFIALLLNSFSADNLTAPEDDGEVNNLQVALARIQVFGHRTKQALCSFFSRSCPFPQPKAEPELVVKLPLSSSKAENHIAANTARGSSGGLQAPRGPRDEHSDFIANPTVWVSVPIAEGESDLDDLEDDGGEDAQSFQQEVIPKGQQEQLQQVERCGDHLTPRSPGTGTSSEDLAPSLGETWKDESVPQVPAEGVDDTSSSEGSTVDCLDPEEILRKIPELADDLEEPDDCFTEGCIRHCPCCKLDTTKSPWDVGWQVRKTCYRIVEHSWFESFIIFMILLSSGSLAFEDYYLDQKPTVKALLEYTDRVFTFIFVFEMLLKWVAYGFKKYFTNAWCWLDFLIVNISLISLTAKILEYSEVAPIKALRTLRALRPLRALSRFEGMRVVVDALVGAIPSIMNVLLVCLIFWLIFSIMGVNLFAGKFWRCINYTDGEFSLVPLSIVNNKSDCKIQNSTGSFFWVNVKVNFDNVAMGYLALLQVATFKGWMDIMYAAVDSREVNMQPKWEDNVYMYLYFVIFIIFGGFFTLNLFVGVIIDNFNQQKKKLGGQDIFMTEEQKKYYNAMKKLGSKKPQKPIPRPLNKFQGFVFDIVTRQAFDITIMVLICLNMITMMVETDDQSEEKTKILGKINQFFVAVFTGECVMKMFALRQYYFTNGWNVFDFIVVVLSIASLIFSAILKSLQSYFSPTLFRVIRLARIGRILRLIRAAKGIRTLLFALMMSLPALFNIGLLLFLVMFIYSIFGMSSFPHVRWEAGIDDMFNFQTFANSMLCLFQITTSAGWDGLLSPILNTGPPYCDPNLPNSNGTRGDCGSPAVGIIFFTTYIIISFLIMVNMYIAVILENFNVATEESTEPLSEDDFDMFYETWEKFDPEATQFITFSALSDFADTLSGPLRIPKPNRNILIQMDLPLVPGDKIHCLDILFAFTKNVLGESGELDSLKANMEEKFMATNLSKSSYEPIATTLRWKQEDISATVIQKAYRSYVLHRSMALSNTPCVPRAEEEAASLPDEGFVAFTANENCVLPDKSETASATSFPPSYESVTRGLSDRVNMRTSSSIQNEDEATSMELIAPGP
Method: Antagonist properties of test compounds were assessed as follows. Cells expressing the NaV of interest were placed into microtiter plates. After an incubation period, the cells were stained with fluorescent dyes sensitive to the transmembrane potential. The test compounds were added to the microtiter plate. The cells were stimulated with either chemical or electrical means to evoke a NaV dependent membrane potential change from unblocked channels, which was detected and measured with trans-membrane potential-sensitive dyes. Antagonists were detected as a decreased membrane potential response to the stimulus.
24 hours before the assay on VIPR, CHO cells endogenously expressing a NaV 1.2 type voltage-gated NaV are seeded in 96-well poly-lysine coated plates at 60,000 cells per well. […] Plates are incubated in the dark for 30 minutes at room temperature. • 4) While the cells are being stained with coumarin, a […] oxonol solution in BS#2 is prepared. […] As before, the residual volume should be 40 μL. • 6) Upon removing the bath, the cells are loaded with 80 μL of the DiSBAC2(3) solution, after which test compound, dissolved in DMSO, is added to achieve the desired test concentration to each well from the drug addition plate and mixed thoroughly. The volume in the well should be roughly 121 μL. The cells are then incubated for 20-30 minutes. • 7) Once the incubation is complete, the cells are ready to be assayed on VIPR® with a sodium addback protocol. 120 μL of Bath solution #1 is added to stimulate the NaV dependent depolarization. […] tetracaine was used as an antagonist positive control for block of the NaV channel. Analysis of VIPR® Data:
The following is an example of how NaV1.3 inhibition activity is measured using the optical membrane potential method#2. Other subtypes are performed in an analogous mode in a cell line expressing the NaV of interest.

T1 sequence (Q9NY46 whole entry): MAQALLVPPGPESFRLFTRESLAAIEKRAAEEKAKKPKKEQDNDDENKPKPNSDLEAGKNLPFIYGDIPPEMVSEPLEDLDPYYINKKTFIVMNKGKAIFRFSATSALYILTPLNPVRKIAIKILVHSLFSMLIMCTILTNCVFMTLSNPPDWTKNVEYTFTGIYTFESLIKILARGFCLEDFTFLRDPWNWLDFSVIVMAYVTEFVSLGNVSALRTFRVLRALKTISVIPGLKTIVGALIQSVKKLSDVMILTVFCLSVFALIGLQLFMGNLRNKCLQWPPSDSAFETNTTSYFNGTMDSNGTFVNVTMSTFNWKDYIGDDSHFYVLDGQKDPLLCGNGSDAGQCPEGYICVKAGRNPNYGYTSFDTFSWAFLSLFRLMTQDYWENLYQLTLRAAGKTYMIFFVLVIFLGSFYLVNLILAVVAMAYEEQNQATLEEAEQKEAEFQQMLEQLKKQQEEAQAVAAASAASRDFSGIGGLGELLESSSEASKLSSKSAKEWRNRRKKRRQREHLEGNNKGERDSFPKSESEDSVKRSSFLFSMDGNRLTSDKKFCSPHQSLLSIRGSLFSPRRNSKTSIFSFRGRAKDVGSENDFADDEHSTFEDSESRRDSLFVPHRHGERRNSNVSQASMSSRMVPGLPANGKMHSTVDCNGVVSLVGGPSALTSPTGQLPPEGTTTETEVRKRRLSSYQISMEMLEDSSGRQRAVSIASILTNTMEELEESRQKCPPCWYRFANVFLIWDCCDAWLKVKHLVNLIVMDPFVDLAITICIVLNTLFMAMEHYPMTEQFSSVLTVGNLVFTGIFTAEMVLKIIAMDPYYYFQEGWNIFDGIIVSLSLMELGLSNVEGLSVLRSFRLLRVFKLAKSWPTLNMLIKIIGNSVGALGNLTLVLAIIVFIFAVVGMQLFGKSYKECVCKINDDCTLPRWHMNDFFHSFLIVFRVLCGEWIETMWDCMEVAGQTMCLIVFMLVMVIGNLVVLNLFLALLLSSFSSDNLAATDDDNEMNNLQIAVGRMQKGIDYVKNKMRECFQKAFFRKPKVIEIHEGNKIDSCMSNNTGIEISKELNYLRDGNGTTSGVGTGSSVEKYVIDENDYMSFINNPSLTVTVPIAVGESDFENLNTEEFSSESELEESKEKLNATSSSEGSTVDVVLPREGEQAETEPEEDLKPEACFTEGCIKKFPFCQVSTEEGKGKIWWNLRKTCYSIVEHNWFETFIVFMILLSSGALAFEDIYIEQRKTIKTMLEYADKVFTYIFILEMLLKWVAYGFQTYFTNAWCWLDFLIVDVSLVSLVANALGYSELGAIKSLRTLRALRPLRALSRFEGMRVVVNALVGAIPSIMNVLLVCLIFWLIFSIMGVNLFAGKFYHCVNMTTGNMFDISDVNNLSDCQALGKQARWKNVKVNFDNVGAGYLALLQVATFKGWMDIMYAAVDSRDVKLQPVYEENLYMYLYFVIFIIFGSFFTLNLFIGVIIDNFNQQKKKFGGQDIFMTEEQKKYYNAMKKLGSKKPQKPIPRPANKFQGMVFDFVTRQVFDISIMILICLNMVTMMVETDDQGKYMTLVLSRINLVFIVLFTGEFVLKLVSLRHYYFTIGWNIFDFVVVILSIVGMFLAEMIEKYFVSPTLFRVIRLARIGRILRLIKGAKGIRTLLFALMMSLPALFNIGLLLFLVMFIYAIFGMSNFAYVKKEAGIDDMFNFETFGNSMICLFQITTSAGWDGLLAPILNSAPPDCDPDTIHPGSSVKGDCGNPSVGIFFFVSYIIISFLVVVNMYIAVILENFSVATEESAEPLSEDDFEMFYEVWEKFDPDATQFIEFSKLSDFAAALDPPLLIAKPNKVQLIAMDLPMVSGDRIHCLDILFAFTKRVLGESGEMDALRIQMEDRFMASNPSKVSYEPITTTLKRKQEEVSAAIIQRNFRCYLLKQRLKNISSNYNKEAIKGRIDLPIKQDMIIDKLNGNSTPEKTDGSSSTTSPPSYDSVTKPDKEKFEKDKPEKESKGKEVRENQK

Compound | IC50 (NaV1.3) [µM] | IC50 (CaV2.2) [µM] | IC50 (NaV1.8) [µM]
O=C(c1cnc(N2CCSCC2)nc1-c1ccccc1F)N(Cc1ccc2c(c1)CCO2)C1CC1 [compound 30] | 2 to 10 | 2 to 10 | > 10
Cc1nc(N2CCOCC2)nc(-c2ccccc2F)c1C(=O)N(Cc1ccc(C(C)(C)C)cc1)C(C)C [compound 31] | 2 to 10 | 2 to 10 | > 10
Cc1nc(N2CCCCC2)nc(-c2ccccc2F)c1C(=O)N(Cc1ccc(C(C)(C)C)cc1)C(C)C [compound 32] | 2 to 10 | 2 to 10 | > 10
O=C(NC1Cc2ccccc2C1)c1cnc(N2CCOCC2)nc1-c1ccccc1F [compound 33] | > 10 | > 10 | > 10
COc1cccc(N(C(=O)c2cnc(N3CCC4CCCCC4C3)nc2-c2ccccc2F)C(C)C)c1 (stereo not drawn) [compound 34] | 2 to 10 | 2 to 10 | > 10
COc1cccc(N(C(=O)c2cnc(N3CCCCC3)nc2-c2ccccc2F)C2CCOCC2)c1 [compound 35] | > 10 | > 10 | > 10
COc1ccc(CN(C(=O)c2cnc(N3CCCCC3)nc2-c2ccccc2Cl)C2CC2)cc1 [compound 36] | 2 to 10 | 2 to 10 | > 10
O=C(NC(CN1CCCC1)c1ccccc1)c1cnc(N2CCOCC2)nc1-c1ccccc1F (stereo not drawn) [compound 37] | > 10 | > 10 | > 10
CN1CCN(c2ncc(C(=O)N(Cc3ccc(F)cc3)C3CC3)c(-c3ccccc3F)n2)CC1 [compound 39] | > 10 | > 10 | > 10
O=C(c1cnc(N2CCOCC2)nc1-c1ccccc1F)N(Cc1cccc2ccccc12)C1CC1 [compound 40] | 2 to 10 | > 10 | > 10
CC(C)N(C(=O)c1cnc(N2CCCCC2)nc1-c1ccccc1F)c1cccc(C(C)(C)C)c1 [compound 41] | 2 to 10 | > 10 | > 10
O=C(c1cnc(N2CCSCC2)nc1-c1ccccc1F)N(Cc1ccccc1)C1CCCCC1 [compound 47] | 2 to 10 | 2 to 10 | > 10

Other lines, results leading:

IC50 (NaV1.3) [µM] | IC50 (CaV2.2) [µM] | IC50 (NaV1.8) [µM] | Compound
2 to 10 | 2 to 10 | > 10 | COc1cccc(N(C(=O)c2cnc(N3CCCCC3)nc2-c2ccccc2F)C2CCCC2)c1 [compound 42]
2 to 10 | 2 to 10 | > 10 | COc1ccc(N(C(=O)c2cnc(N3CCCCC3)nc2-c2ccccc2Cl)C(C)C)cc1 [compound 43]
2 to 10 | > 10 | 2 to 10 | COc1ccccc1C1CCN(C(=O)c2cnc(N3CCOCC3)nc2-c2ccccc2F)CC1 [compound 44]
> 10 | > 10 | > 10 | CC(C)N(Cc1ccccc1)C(=O)c1cnc(N2CCC(O)C2)nc1-c1ccccc1F (stereo not drawn) [compound 45]
> 10 | > 10 | > 10 | O=C(NCCCc1ccccc1)c1cnc(N2CCOCC2)nc1-c1ccc(Oc2ccccc2)cc1 [compound 46]
2 to 10 | 2 to 10 | > 10 | O=C(c1cnc(N2CCSCC2)nc1-c1ccccc1F)N(Cc1ccc(F)cc1)C1CC1 [compound 48]
2 to 10 | > 10 | > 10 | CCC(COC)N(Cc1ccccc1)C(=O)c1c(C)nc(N2CCOCC2)nc1-c1ccccc1F (stereo not drawn) [compound 49]
> 10 | 2 to 10 | > 10 | CC(C)N(Cc1ccc(N2CCCC2)cc1)C(=O)c1cnc(N2CCCCC2)nc1-c1ccccc1F [compound 50]
2 to 10 | 2 to 10 | > 10 | CC(C)N(Cc1ccccc1)C(=O)c1cnc(Nc2ccc3c(c2)OCO3)nc1-c1ccccc1F [compound 51]
2 to 10 | 2 to 10 | > 10 | CC1CCc2ccccc2N1C(=O)c1cnc(N2CCOCC2)nc1-c1ccccc1F (stereo not drawn) [compound 52]
2 to 10 | 2 to 10 | > 10 | O=C(c1cnc(N2CCOCC2)nc1-c1ccccc1F)N(Cc1ccc2c(c1)CCO2)C1CC1 [compound 53]

Reference: US8546414B2, “Ion channel modulators and methods of use” (Vertex Pharmaceuticals Incorporated, priority 2004, dated 2013)
